In article PMC7503767, “Alkoxyamines Designed as Potential Drugs against Plasmodium and Schistosoma Parasites” (Molecules, 2020):
Where two headings read alike, the source gives them in different places.

What was measured:
Adult S. mansoni = assay: In vitro antischistosomal activity on adult worms; format: cell-based, Schistosoma mansoni; settings: for Mean (±SD) survival time – Adult S. mansoni / Time for the death of 100% worms: 100 µg/mL; for Mean (±SD) survival time – Adult S. mansoni: observation up to 8 h (Table S1); for Time for the death of 100% worms / S. mansoni Mean Survival Time: adult S. mansoni, observation up to 8 h; for S. mansoni Mean Survival Time: single dose 100 µg/mL
From the text: The NMRI strain of Schistosoma mansoni was used for the experimentations. The parasite was maintained on an albino variety of Biomphalaria glabrata from Brazil (intermediate host) and in Golden Hamsters, Mesocricetus auratus (Janvier Labs, Le Genest-Saint-Isle, France). Detailed methods, for mollusk and hamster infections and for parasite recovery, were previously described.
Adult worms were recovered between 42 and 47 days after infection by hepatic perfusion technique. Twenty to fifty adult worms were disposed in 12-well Falcon® plate containing 2 mL of RPMI 1640 (supplemented with L-glutamine and Hepes 25 mM) and stored in an incubator chamber (37 °C; 5% CO2). Drug preparation started with dissolution of the drug in DMSO to give a 100 mg/mL stock solution. The dilution was complemented with Tween 80 and RPMI in order to obtain the following final ratio dilution: RPMI 1640/Tween 80/DMSO, 1000/0.95/3.8, v/v/v. The drug solution was added to Falcon plates that contained adult worms. The S. mansoni cultures were then incubated with each drug at a final concentration of 100 µg/mL. Positive control was carried out with a solution of praziquantel (Merck KGaA, Darmstadt, Germany) at a concentration of 100 µg/mL. Negative control was carried out with the same RPMI 1640/Tween 80/DMSO solution, but without any drug. Each test was performed in duplicate. Every hour, moving worms were counted in order to define the percentage of survivors. Parasites showing no body contractions during a 30 s observation were considered as dead. Observations were extended to 8 h. Mean survival times (± standard deviation) were calculated for each drug using Kaplan–Meier survival analyses.

[1] = system: P. falciparum F32-ART5 (artemisinin-resistant strain); assay: Standard chemosensitivity assay (SYBR Green I), F32-ART5; format: cell-based, Plasmodium falciparum; settings: ^1 n = 1, ^2 n = 2
Protocol: (§1) F32-ART5, an artemisinin-resistant strain and F32-TEM, an artemisinin-sensitive strain, were obtained from the parental clone F32-Tanzania, respectively under regular drug pressure cycles of increasing artemisinin concentrations for 5 years and without any artemisinin pressure. After these drug pressure cycles allowing selection of the F32-ART5 strain, regular drug pressures were performed to maintain its phenotype. […] Briefly, parasites were cultured in RPMI 1640 (Fisher Scientific, Waltham, Illkirch-Graffenstaden, France) supplemented with 5% type AB human serum (Etablissement français du Sang, Toulouse, France) and adjusted at a parasitemia of 1% and 2% hematocrit with type O human at 37 °C and 5% CO2. Parasite development was daily monitored by Giemsa staining.
(§2) Briefly, for the determination of IC50 values, the chemosensitivity assay was carried out in 96-well culture plates on D-sorbitol ring-stage synchronized parasites and antiplasmodial activities were evaluated using the SYBR Green I method. Drug testing was performed in triplicates in a dose range of 5 to 7 concentrations. […] Parasites were left to proliferate with the given compounds for 48 h at 37 °C and 5% CO2. After this period, pellets were washed 3 times in sterile PBS prior to putting the plates at −20 °C overnight to lyse all red blood cells. The following day, the plates were thawed at room temperature, 100 µL of each well was transferred into a black 96-well plate to which another 100 µL of 2× PBS-diluted SYBR Green I (Sigma-Aldrich) was added and left to incubate for 2 h at room temperature prior to reading the plates on BioTek FL× 800 Microplate Fluorescence Reader (λexcitation = 485 nm, λemission = 528 nm).
(§3) IC50 values were determined using GraphPad Prism by drawing the curve % inhibition vs. [Drug] and using a four-parameter dose–response curve with the following equation: Y=Bottom+ Top−Bottom/1+x^Hill Slope/IC50Hill Slope

[2] = system: P. falciparum chloroquine-resistant strain FcB1-Columbia; assay: Antiplasmodial screen at 10 µM and chemosensitivity assay (SYBR Green I), FcB1-Columbia; format: cell-based, Plasmodium falciparum
[3] = system: P. falciparum F32-TEM (artemisinin-sensitive strain); assay: Standard chemosensitivity assay (SYBR Green I), F32-TEM; format: cell-based, Plasmodium falciparum
Protocol: as §1, §2, §3

Vero cells = assay: Cytotoxicity assay (MTT); settings: for IC50: read-out: Cytotoxicity Mean IC50, Vero cell lines, 48 h, MTT; for Selectivity Index: ratio cytotoxicity (Vero)/activity on Plasmodium
Protocol: (§4) Vero cells were cultured in MEM (Dutscher, Brumath, France) supplemented with 10% fetal bovine serum, 1× non-essential amino acids, 100 U/mL, 100 µg/mL penicillin/streptomycin, and 2 mM L-glutamine at 37 °C in a humidified 5% CO2 atmosphere. […] At this time, each well was microscope-examined for detection of possible precipitate formation prior to remove the supernatant by flicking the plate. 100 µL of a 0.5 mg/mL PBS-dissolved MTT tetrazolium (stock solution at 5 mg/mL) was then added to each well [48]. The plates were then incubated for 1 h at 37 °C and 5% CO2 prior to removing the supernatant and adding 100 µL of DMSO. Plates were gently shaken to dissolve formazan crystals resulting from the MTT tetrazolium reduction by living cells and read at 570 nm with BioTek µQuant Microplate Spectrophotometer.

[4] = Homolysis of the NO–C bond measured by EPR
Protocol: Homolysis rate constants kd’ were measured by EPR and estimated using Equation (1) as reported many times in the literature. Further, Ea and kd were estimated using Equation (2). (1) ln([nitroxide]∞−[nitroxide]t/[nitroxide]∞)=−kd·t (2) Ea=−RT ln([…] kd′ )

Cytotoxicity assay (MTT) = settings: African green monkey
Protocol: as §4

[5] = 48 h, read-out: P. falciparum Strains Mean IC50, F32-ART5
[6] = FcB1-Columbia strain, read-out: IC50 on P. falciparum
[7] = 48 h, ^1 n = 1, ^2 n = 2, read-out: P. falciparum Strains Mean IC50, F32-TEM
[8] = Plasmodium falciparum, FCB1, read-out: IC50 on P. falciparum, FcB1-Columbia strain
[9] = read-out: P. falciparum Strains Mean IC50, F32-ART5, 48 h
[10] = read-out: P. falciparum Strains Mean IC50, F32-TEM, 48 h, ^1 n = 1, ^2 n = 2
[11] = Plasmodium falciparum, F32, 48 h, read-out: P. falciparum Strains Mean IC50, F32-ART5, 48 h
[12] = Plasmodium falciparum, F32, 48 h, read-out: P. falciparum Strains Mean IC50, F32-TEM, 48 h, ^1 n = 1, ^2 n = 2
[13] = Cytotoxicity Mean IC50, Vero cell lines, 48 h, MTT

SMILES: CCOP(=O)(OCC)C(N(OC(C)c1ccc2ccc3cccnc3c2n1)C(C)(C)C)C(C)(C)C (centres unmarked) [1J]
- Mean (±SD) survival time – Adult S. mansoni (Adult S. mansoni): 1.1 ± 0.05 h
- Time for the death of 100% worms (Adult S. mansoni): 2 h
- S. mansoni Mean Survival Time (Adult S. mansoni): 1.1 ± 0.1 h
- IC50 [1, 5]: 2300 nM
- IC50 [2, 6]: 3100 ± 1100 nM
- IC50 [3, 7]: 2900 nM
- IC50 (Vero cells): 6200 ± 1200 nM

SMILES: CCOP(=O)(OCC)C(N(OC(C)c1ccnc2c1ccc1cccnc12)C(C)(C)C)C(C)(C)C (centres unmarked) [1K]
- Mean (±SD) survival time – Adult S. mansoni (Adult S. mansoni): 1.1 ± 0.04 h
- Time for the death of 100% worms (Adult S. mansoni): 2 h
- S. mansoni Mean Survival Time (Adult S. mansoni): 1.1 ± 0.0 h
- IC50 [1, 5]: 1600 nM
- IC50 [2, 6]: 1300 ± 300 nM
- IC50 (Vero cells): 1100 ± 700 nM

SMILES: CCOP(=O)(OCC)C(N(OC(C)c1cc(-c2ccccn2)nc(-c2ccccn2)c1)C(C)(C)CO)C(C)(C)C (centres unmarked) [2F]
- S. mansoni Mean Survival Time (Adult S. mansoni): 2.1 to 2.5 h
- IC50 [2, 8]: 200 to 300 nM
- IC50 ([3]; Plasmodium falciparum, F32, read-out: IC50 on the F32 strains, F32-TEM and F32-ART5 taken together): 400 to 600 nM
- Selectivity Index (Vero cells): 1

SMILES: CCOP(=O)(OCC)C(N(OC(C)c1ccc2ccc3cccnc3c2n1)C(C)(C)CO)C(C)(C)C (centres unmarked) [2J]
- Mean (±SD) survival time – Adult S. mansoni (Adult S. mansoni): 1.0 ± 0.0 h
- Time for the death of 100% worms (Adult S. mansoni): 1 h
- S. mansoni Mean Survival Time (Adult S. mansoni): 1.0 ± 0.0 h
- IC50 [1, 5]: 4600 nM
- IC50 [2, 6]: 2500 ± 1500 nM
- IC50 [3, 7]: 5000 nM
- IC50 (Vero cells): 17000 ± 6300 nM

SMILES: CC(ON1C(C)(C)CCCC1(C)C)c1ccncc1 (centres unmarked) [9a]
- Mean (±SD) survival time – Adult S. mansoni (Adult S. mansoni): 3.0 ± 0.0 h
- Time for the death of 100% worms (Adult S. mansoni): 3 h
- S. mansoni Mean Survival Time (Adult S. mansoni): 3.0 ± 0.0 h
- IC50 [1, 5]: 13000 nM
- IC50 [2, 6]: 8000 ± 3000 nM
- IC50 [3, 7]: 7500 nM
- IC50 (Vero cells): 40000 ± 13000 nM

SMILES: CCOP(=O)(OCC)C(N(OC(C)c1cc(-c2ccccn2)nc(-c2ccccn2)c1)C(C)(C)CO)C(C)(C)C (centres unmarked) [(RR/SS)-2F, Diethyl(1-((1-([2,2′:6′,2′′-terpyridin]-4′-yl)ethoxy)(1-hydroxy-2-methylpropan-2-yl)amino)-2,2-dimethylpropyl)phosphonate]
- activation energy Ea ([4]; MeOH/water 1:1 pH = 7.4): 28.39 kcal/mol
- re-estimated homolysis rate constant kd at 120 °C ([4]; MeOH/water 1:1 pH = 7.4): 38.9 10^−3 s^−1
- half-lifetime t1/2 at 37 °C ([4]; MeOH/water 1:1 pH = 7.4 (aqueous medium)): 84 h
- homolysis rate constant kd′ ([4]; MeOH/water 1:1 pH = 7.4, 81 °C): 7.1 10^−4s^−1
- activation energy Ea ([4]; t-BuPh): 28.42 kcal/mol
- half-lifetime t1/2 at 37 °C ([4]; t-BuPh): 84 h
- re-estimated homolysis rate constant kd at 120 °C ([4]; t-BuPh): 38.4 10^−3 s^−1
- homolysis rate constant kd′ ([4]; t-BuPh, 81 °C): 7.0 10^−4s^−1
- S. mansoni Mean Survival Time (Adult S. mansoni): 2.5 ± 0.2 h
- IC50 [1, 9]: 400 ± 100 nM
- IC50 ([2]; read-out: IC50 on P. falciparum, FcB1-Columbia strain): 200 nM
- IC50 [3, 10]: 500 ± 100 nM
- Selectivity Index (Vero cells): 1
- IC50 (Vero cells): 700 ± 300 nM

SMILES: CCOP(=O)(OCC)C(N(OC(C)c1cc(-c2ccccn2)nc(-c2ccccn2)c1)C(C)(C)C(=O)O)C(C)(C)C (centres unmarked) [(RR/SS)-4F, 2-((1-([2,2′:6′,2′′-Terpyridin]-4′-yl)ethoxy)(1-(diethoxyphosphoryl)-2,2-dimethylpropyl)amino)-2-methylpropanoic acid]
- Mean (±SD) survival time – Adult S. mansoni (Adult S. mansoni): > 8 h
- Time for the death of 100% worms (Adult S. mansoni): > 8 h
- S. mansoni Mean Survival Time (Adult S. mansoni): > 8 h
- IC50 [1, 9]: 4600 nM
- IC50 [3, 10]: 4600 nM
- Selectivity Index (Vero cells): 2
- IC50 (Vero cells): 8100 nM

SMILES: CCOP(=O)(OCC)C(N(OC(C)c1cc(-c2ccccn2)nc(-c2ccccn2)c1)C(C)(C)C=O)C(C)(C)C (centres unmarked) [(RR/SS)-7F, Diethyl(1-((1-([2,2′:6′,2′′-terpyridin]-4′-yl)ethoxy)(2-methyl-1-oxopropan-2-yl)amino)-2,2-dimethylpropyl)phosphonate]
- Time for the death of 100% worms (Adult S. mansoni): 3 h
- S. mansoni Mean Survival Time (Adult S. mansoni): 2.5 ± 0.1 h
- IC50 [1, 9]: 850 nM
- IC50 [3, 10]: 940 nM
- Selectivity Index (Vero cells): 1
- IC50 (Vero cells): 1200 ± 1300 nM

SMILES: CCOP(=O)(OCC)C(N(OC(C)c1cc(-c2ccccn2)nc(-c2ccccn2)c1)C(C)(C)C(=O)O)C(C)(C)C (centres unmarked) [(RS/SR)-4F, 2-((1-([2,2′:6′,2′′-Terpyridin]-4′-yl)ethoxy)(1-(diethoxyphosphoryl)-2,2-dimethylpropyl)amino)-2-methylpropanoic acid]
- Time for the death of 100% worms (Adult S. mansoni): 7 h
- S. mansoni Mean Survival Time (Adult S. mansoni): 5.2 ± 0.2 h
- IC50 [1, 11]: 4700 nM
- IC50 [2, 8]: 2900 nM
- IC50 [3, 12]: 2900 nM
- Selectivity Index (Vero cells): 4
- IC50 at 48 h (Cytotoxicity assay (MTT); [13]): 15000 ± 5000 nM

SMILES: CCOP(=O)(OCC)C(N(OC(C)c1cc(-c2ccccn2)nc(-c2ccccn2)c1)C(C)(C)C=O)C(C)(C)C (centres unmarked) [(RS/SR)-7F, Diethyl(1-((1-([2,2′:6′,2′′-terpyridin]-4′-yl)ethoxy)(2-methyl-1-oxopropan-2-yl)amino)-2,2-dimethylpropyl)phosphonate]
- Time for the death of 100% worms (Adult S. mansoni): 3 h
- S. mansoni Mean Survival Time (Adult S. mansoni): 2.7 ± 0.1 h
- IC50 [1, 11]: 1400 nM
- IC50 [3, 12]: 1300 nM
- Selectivity Index (Vero cells): 0.6
- IC50 at 48 h (Cytotoxicity assay (MTT); [13]): 900 ± 400 nM

SMILES: CCN(CC)CCCC(C)Nc1ccnc2cc(Cl)ccc12 (centres unmarked) [Chloroquine, chloroquine, reference compound]
- IC50 [1, 11]: 60 ± 30 nM
- IC50 ([2]; Plasmodium falciparum, FCB1, read-out: IC50 on P. falciparum): 160 ± 36 nM
- IC50 [3, 12]: 60 ± 20 nM
- IC50 at 48 h (Cytotoxicity assay (MTT)): 190000 ± 56000 nM

SMILES: CCc1cc(-c2ccccn2)nc(-c2ccccn2)c1 [compound 22, 4′-ethyl terpyridine]
- Mean (±SD) survival time – Adult S. mansoni (Adult S. mansoni): > 8 h
- Time for the death of 100% worms (Adult S. mansoni): > 8 h
- S. mansoni Mean Survival Time (Adult S. mansoni): >8 h
- IC50 [1, 11]: 230 nM
- IC50 ([2]; Plasmodium falciparum, FcB1-Columbia strain, read-out: IC50 on P. falciparum): 910 ± 60 nM
- IC50 [3, 12]: 240 nM
- Selectivity Index (Vero cells): 22
- IC50 at 48 h (Cytotoxicity assay (MTT); Vero cells): 5300 ± 4500 nM
